Data on 12 compounds can be found in ChEMBL document CHEMBL1127056, “3-(Alkylamino)-4H-pyrido[4,3-e]-1,2,4-thiadiazine 1,1-dioxides as powerful inhibitors of insulin release from rat pancreatic B-cells: a new class of potassium channel openers?” (1993).

Structures are written as SMILES.

Common to all, as to assay type: functional
The species named for assay [1] is Rattus norvegicus. The assay is described as follows: Inhibition of insulin release from rat pancreatic islets incubated in the presence of glucose ([…]) at concentration of 1 uM.
The species entered for assay [2] is Rattus norvegicus. The assay is described as follows: Inhibition of insulin release from rat pancreatic islets incubated in the presence of glucose ([…]) at concentration of 500 uM.
The species entered for assay [3] is Rattus norvegicus. Nature of the assay: Inhibition of insulin release from rat pancreatic islets incubated in the presence of glucose ([…]) at concentration of 100 uM.
The species named for assay [4] is Rattus norvegicus. Nature of the assay: Inhibition of insulin release from rat pancreatic islets incubated in the presence of glucose ([…]) at concentration of 50 uM.
Assay [5] is filed under the species Rattus norvegicus. The assay is described as follows: Inhibition of insulin release from rat pancreatic islets incubated in the presence of glucose ([…]) at concentration of 10 uM.

Turning to `O=S1(=O)N=C(NC2CCCCC2)Nc2ccncc21`, the Secretion in the assay filed under Rattus norvegicus [1] stood at 74.4%; in the assay filed under Rattus norvegicus [2] it was 6.2%; in the assay filed under Rattus norvegicus [3], 18.4%; in the assay listed under Rattus norvegicus [4] it was 40.5%; in the assay listed under Rattus norvegicus [5] it was 64.4%.
`CCC(C)NC1=NS(=O)(=O)c2cnccc2N1` (configuration not stated): the Secretion in the assay filed under Rattus norvegicus [1] stood at 97.8%; in the assay listed under Rattus norvegicus [2] it was 9.4%; in the assay listed under Rattus norvegicus [3], 7.1%; in the assay listed under Rattus norvegicus [4] it was 9.4%; in the assay listed under Rattus norvegicus [5], 49%.
As to `CCCNC1=NS(=O)(=O)c2cnccc2N1`, the Secretion in the assay listed under Rattus norvegicus [1] is listed as 97.1%; in the assay filed under Rattus norvegicus [2] it was 9%; in the assay filed under Rattus norvegicus [3], 21.9%; in the assay listed under Rattus norvegicus [4], 57.7%; in the assay filed under Rattus norvegicus [5] it was 87.3%.
As to `NC1=NS(=O)(=O)c2cnccc2N1`, the Secretion in the assay listed under Rattus norvegicus [4] worked out at 104.1%.
`O=S1(=O)N=C(NC2CCCC2)Nc2ccncc21`: the Secretion in the assay listed under Rattus norvegicus [1] turned out to be 82.8%; in the assay listed under Rattus norvegicus [2], 4.4%; in the assay filed under Rattus norvegicus [3], 9.2%; in the assay listed under Rattus norvegicus [4], 31.5%; in the assay filed under Rattus norvegicus [5], 71.1%.
In the case of `O=S1(=O)N=C(NN2CCOCC2)Nc2ccncc21`, in the assay filed under Rattus norvegicus [4], the Secretion is on record as 94.8%.
On to `CC(C)NC1=NS(=O)(=O)c2cnccc2N1`, for which the Secretion in the assay filed under Rattus norvegicus [1] turned out to be 110.3%; in the assay listed under Rattus norvegicus [2] it was 8.8%; in the assay filed under Rattus norvegicus [3], 18.4%; in the assay listed under Rattus norvegicus [4], 42.5%; in the assay filed under Rattus norvegicus [5], 55.3%.
The matching figures for `CCCCNC1=NS(=O)(=O)c2cnccc2N1`: 83.7%, 9%, 32.5%, 38.6% and 82%.
In the case of `CC(C)C(C)NC1=NS(=O)(=O)c2cnccc2N1` (configuration not stated), the Secretion is listed as 70.5% in the assay listed under Rattus norvegicus [1]; 8.4% in the assay listed under Rattus norvegicus [2]; 8.8% in the assay filed under Rattus norvegicus [3]; 8.6% in the assay filed under Rattus norvegicus [4]; 13.7% in the assay listed under Rattus norvegicus [5].
Consider `CC(C)C(C)NC1=NS(=O)(=O)c2cc(Cl)ccc2N1` (configuration not stated), for which the Secretion is 88.9% in the assay listed under Rattus norvegicus [1]; 4.6% in the assay listed under Rattus norvegicus [2]; 6.5% in the assay listed under Rattus norvegicus [3]; 11% in the assay filed under Rattus norvegicus [4]; 62.7% in the assay filed under Rattus norvegicus [5].
Regarding `CC(C)CNC1=NS(=O)(=O)c2cnccc2N1`, the Secretion in the assay listed under Rattus norvegicus [1] turned out to be 84.2%; in the assay filed under Rattus norvegicus [2], 9.7%; in the assay listed under Rattus norvegicus [3], 10.2%; in the assay listed under Rattus norvegicus [4], 23.4%; in the assay listed under Rattus norvegicus [5], 71.8%.
The like results for `CC1=Nc2ccc(Cl)cc2S(=O)(=O)N1` [DIAZOXIDE] were, in that order, 78.9%, 8.5%, 14%, 28.8% and 70%.
